Results from article PMC12439480, “Dimeric CCK2R radiotheranostic tracers synergize with mTOR inhibition for enhanced tumor therapy” (Theranostics, 2025).
Numbered stars: 1 amine (or outer) side, 2 acyl side, 3 side chain; on linkers, the order of the positions; unused ones are H or OH. Square brackets hold non-standard residues; d marks the D form. Peptide text beside a SMILES is read from it. * marks the point of attachment. DOTA = O=C(O)CN1CCN(CC(=O)O)CCN(CC(=O)*)CCN(CC(=O)O)CC1; d(γGlu) = O=C(O)[C@@H](CCC(=O)[*:2])N[*:1]; 1Nal = N[C@@H](Cc1cccc2ccccc12)C(=O)O; NMeNle = CCCC[C@H](NC)C(=O)O; PEG4 = NCCOCCOCCOCCOCCC(=O)O

Columns and labels:
[1] = type: physicochemical; details: pH 7.4
Procedure: The hydrophilicity of [^68Ga]Ga-DOTA-CCK2R-dimer and [^68Ga]Ga-DOTA-CCK-66 was assessed by determining their partition coefficients (Log D7.4) in a phosphate-buffered saline (PBS; pH 7.4)/n-octanol (1:1, v/v) system. Briefly, ~37 kBq of each radiotracer was mixed with 2 mL of the biphasic system, vortexed for 5 min, and centrifuged at 15,000 × g for 5 min. The radioactivity in 100 μL aliquots of each phase was quantified using a γ-counter (n = 5).

[2] = design: species or system KM mice; details: mouse, in vivo, iv
Procedure: To evaluate the clearance rates of [^68Ga]Ga-DOTA-CCK2R-dimer and [^68Ga]Ga-DOTA-CCK-66 from the blood, a pharmacokinetic study was conducted in male KM mice (4-6 weeks old, 18-20 g, n = 5/group). Each mouse received 3.7 MBq of radiotracer via tail vein injection, corresponding to approximately 120 pmol of [^68Ga]Ga-DOTA-CCK2R-dimer or 210 pmol of [^68Ga]Ga-DOTA-CCK-66. Blood samples were collected from the tail vein into preweighed capillary tubes at 1, 3, 5, 10, 15, 30, 60, 90, 120, and 150 min post-injection. The radioactivity of the blood samples was measured using a γ-counter, and the percent of injected dose per gram of tissue (%ID/g) was calculated. Additionally, we assessed the in vivo stability of [^177Lu]Lu-DOTA-CCK2R-dimer. Mice were intravenously injected with 7.4 MBq (≈ 240 pmol) of [^177Lu]Lu-DOTA-CCK2R-dimer (dissolved in 200 μL of saline; n = 3/group). Urine samples were collected at 1, 4, and 24 hours post-injection, then diluted, filtered through a 0.22 μm membrane, and analyzed by radio-HPLC.
All animal studies were approved by the Ethics Committee of Fudan University […]
Shanghai Cancer Center (No. FUSCC-IACUC- S2023- 0003). […]
Pharmacokinetics in Normal Mice
F or the pharmacokinetics study, […] male KM mice (4 - 6 weeks old, weighing 18 - 20 g) were administered either [68Ga]Ga-D O TA -CCK2R-dimer or [68Ga]Ga-D O TA -CCK- 66 (3.7 MBq per mouse, n = 5/group) via tail vein injection.
Blood samples were collected from the tail vein using pre-weighed capillary tubes at […]
Radioactivity levels were measured using a gamma counter, with decay correction applied based on the injection time. The percentage of injected dose per gram of tissue (%ID/g) was calculated for each time point. […]

in vivo = test: in vivo; design: species or system BALB/c nude mice; details: mouse; for tissue to tissue ratio at 0.5 h / tissue to tissue ratio at 1 h / tissue to tissue ratio at 2 h: female, BALB/c nude, iv, 3.7 MBq, total radioactivity
Procedure: To complement the imaging studies, biodistribution experiments were performed. AR42J tumor-bearing mice were intravenously injected with 3.7 MBq of [^68Ga]Ga-DOTA-CCK2R-dimer (≈ 120 pmol) or [^68Ga]Ga-DOTA-CCK-66 (≈ 210 pmol) (dissolved in 200 μL of saline; n = 3/group). The mice were sacrificed at 30, 60, and 120 min post-injection, and the tissues of interest were excised, weighed, and analyzed for radioactivity using a γ-counter. For blocking studies, a 400-fold excess of the lead compound was co-administered, and the mice were sacrificed at 1 h post-injection.
All animal studies were approved by the Ethics Committee of Fudan University
Shanghai Cancer Center (No. FUSCC-IACUC- S2023- 0003). Five-week-old female
BALB/c nude mice were purchased from Shanghai SLAC Laboratory Animal
Company. To establish cell-derived xenograft (CDX) models, 1 × 10⁶ AR42J cells
(100 μL) were subcutaneously inoculated into the right shoulder of each mouse. […]

[3] = Tumor-to-Large intestine ratio (T/B)
[4] = Tumor-to-Small intestine ratio (T/B)

Work on CCCC[C@@H](C(=O)N[C@@H](CC(=O)O)C(=O)N[C@@H](Cc1cccc2ccccc12)C(N)=O)N(C)C(=O)[C@H](Cc1c[nH]c2ccccc12)NC(=O)CCOCCOCCOCCOCCNC(=O)CC[C@@H](NC(=O)CN1CCN(CC(=O)O)CCN(CC(=O)O)CCN(CC(=O)O)CC1)C(=O)O [[68Ga]Ga-DOTA-CCK-66, metal not drawn, reference compound] ({DOTA-d(γGlu)-PEG4}-W[NMeNle]D[1Nal]-NH2) yielded a logD [1] of -3.03 ± 0.03, a half-life [2] of 11.8 min and a t1/2α [2] of 0.67 min. For the same compound, the tissue to tissue ratio at 0.5 h (in vivo; Tumor-to-Bladder ratio (T/B)) was 1.95 ± 0.96, the tissue to tissue ratio at 1 h (in vivo; Tumor-to-Bladder ratio (T/B)) was 4.41 ± 1.16 and the tissue to tissue ratio at 2 h (in vivo; Tumor-to-Bladder ratio (T/B)) was 7.5 ± 2.91. The tissue to tissue ratio at 0.5 h (in vivo; Tumor-to-Blood ratio (T/B)) was 2.48 ± 0.27, the tissue to tissue ratio at 1 h (in vivo; Tumor-to-Blood ratio (T/B)) was 6.36 ± 1.3 and the tissue to tissue ratio at 2 h (in vivo; Tumor-to-Blood ratio (T/B)) was 18.1 ± 14.9. For the same compound, the tissue to tissue ratio at 0.5 h (in vivo; Tumor-to-Bone ratio (T/B)) was 29.9 ± 14.1, the tissue to tissue ratio at 1 h (in vivo; Tumor-to-Bone ratio (T/B)) was 34.9 ± 29.4 and the tissue to tissue ratio at 2 h (in vivo; Tumor-to-Bone ratio (T/B)) was 98 ± 19.9. The tissue to tissue ratio at 0.5 h (in vivo; Tumor-to-Brain ratio (T/B)) was 72.8 ± 22.6, the tissue to tissue ratio at 1 h (in vivo; Tumor-to-Brain ratio (T/B)) was 91.4 ± 5.94 and the tissue to tissue ratio at 2 h (in vivo; Tumor-to-Brain ratio (T/B)) was 141 ± 66.3. The tissue to tissue ratio at 0.5 h (in vivo; Tumor-to-Heart ratio (T/B)) was 10.9 ± 1.72, the tissue to tissue ratio at 1 h (in vivo; Tumor-to-Heart ratio (T/B)) was 8.93 ± 4.2 and the tissue to tissue ratio at 2 h (in vivo; Tumor-to-Heart ratio (T/B)) was 33.2 ± 30.2. For the same compound, the tissue to tissue ratio at 0.5 h (in vivo; Tumor-to-Kidney ratio (T/B)) was 1.8 ± 0.2, the tissue to tissue ratio at 1 h (in vivo; Tumor-to-Kidney ratio (T/B)) was 1.1 ± 0.47 and the tissue to tissue ratio at 2 h (in vivo; Tumor-to-Kidney ratio (T/B)) was 1.67 ± 0.79. The tissue to tissue ratio at 0.5 h (in vivo; [3]) was 5.91 ± 1.81, the tissue to tissue ratio at 1 h (in vivo; [3]) was 13.3 ± 6.96 and the tissue to tissue ratio at 2 h (in vivo; [3]) was 26.2 ± 5.5. It also gave a tissue to tissue ratio at 0.5 h (in vivo; Tumor-to-Liver ratio (T/B)) of 4.12 ± 0.63, a tissue to tissue ratio at 1 h (in vivo; Tumor-to-Liver ratio (T/B)) of 4.3 ± 0.38 and a tissue to tissue ratio at 2 h (in vivo; Tumor-to-Liver ratio (T/B)) of 13.2 ± 7.75. The tissue to tissue ratio at 0.5 h (in vivo; Tumor-to-Lung ratio (T/B)) was 3.22 ± 0.56, the tissue to tissue ratio at 1 h (in vivo; Tumor-to-Lung ratio (T/B)) was 7.32 ± 5.81 and the tissue to tissue ratio at 2 h (in vivo; Tumor-to-Lung ratio (T/B)) was 11.7 ± 2.81. It also gave a tissue to tissue ratio at 0.5 h (in vivo; Tumor-to-Muscle ratio (T/M)) of 6.69 ± 2.78, a tissue to tissue ratio at 1 h (in vivo; Tumor-to-Muscle ratio (T/M)) of 10.2 ± 1.41 and a tissue to tissue ratio at 2 h (in vivo; Tumor-to-Muscle ratio (T/M)) of 15.2 ± 6.94. The tissue to tissue ratio at 0.5 h (in vivo; [4]) was 5.83 ± 2.57, the tissue to tissue ratio at 1 h (in vivo; [4]) was 7.43 ± 1.49 and the tissue to tissue ratio at 2 h (in vivo; [4]) was 25.7 ± 17.9. The tissue to tissue ratio at 0.5 h (in vivo; Tumor-to-Spleen ratio (T/B)) was 4.46 ± 1.21, the tissue to tissue ratio at 1 h (in vivo; Tumor-to-Spleen ratio (T/B)) was 7 ± 2.74 and the tissue to tissue ratio at 2 h (in vivo; Tumor-to-Spleen ratio (T/B)) was 24.9 ± 10.9. For the same compound, the tissue to tissue ratio at 0.5 h (in vivo; Tumor-to-Stomach ratio (T/B)) was 4.5 ± 1.83, the tissue to tissue ratio at 1 h (in vivo; Tumor-to-Stomach ratio (T/B)) was 5.06 ± 2.32 and the tissue to tissue ratio at 2 h (in vivo; Tumor-to-Stomach ratio (T/B)) was 6 ± 1.93. For the same compound, the tissue uptake at 0.5 h (in vivo; Bladder uptake) was 1.9 ± 1.13 %ID/g, the tissue uptake at 1 h (in vivo; Bladder uptake) was 1.59 ± 0.47 %ID/g and the tissue uptake at 2 h (in vivo; Bladder uptake) was 1.37 ± 0.43 %ID/g. The tissue uptake at 0.5 h (in vivo; Blood uptake) was 1.22 ± 0.15 %ID/g, the tissue uptake at 2 h (in vivo; Blood uptake) was 0.69 ± 0.3 %ID/g and the tissue uptake at 0.5 h (in vivo; Bone uptake) was 0.12 ± 0.05 %ID/g. It also gave a tissue uptake at 2 h (in vivo; Bone uptake) of 0.1 ± 0.04 %ID/g, a tissue uptake at 0.5 h (in vivo; Brain uptake) of 0.03 ± 0.01 %ID/g and a tissue uptake at 2 h (in vivo; Brain uptake) of 0.07 ± 0.01 %ID/g. It also gave a tissue uptake at 0.5 h (in vivo; Heart uptake) of 0.28 ± 0.04 %ID/g, a tissue uptake at 2 h (in vivo; Heart uptake) of 0.48 ± 0.31 %ID/g and a tissue uptake at 0.5 h (in vivo; Kidney uptake) of 1.68 ± 0.19 %ID/g. For the same compound, the tissue uptake at 1 h (in vivo; Kidney uptake) was 7.52 ± 1.95 %ID/g, the tissue uptake at 2 h (in vivo; Kidney uptake) was 6.4 ± 2.54 %ID/g and the tissue uptake at 0.5 h (in vivo; Large intestine uptake) was 0.55 ± 0.19 %ID/g. For the same compound, the tissue uptake at 2 h (in vivo; Large intestine uptake) was 0.37 ± 0.06 %ID/g, the tissue uptake at 0.5 h (in vivo; Liver uptake) was 0.74 ± 0.1 %ID/g and the tissue uptake at 1 h (in vivo; Liver uptake) was 1.57 ± 0.22 %ID/g. For the same compound, the tissue uptake at 2 h (in vivo; Liver uptake) was 0.54 ± 0.17 %ID/g, the tissue uptake at 0.5 h (in vivo; Lung uptake) was 0.95 ± 0.14 %ID/g and the tissue uptake at 1 h (in vivo; Lung uptake) was 1.25 ± 0.6 %ID/g. For the same compound, the tissue uptake at 2 h (in vivo; Lung uptake) was 0.87 ± 0.31 %ID/g, the tissue uptake at 0.5 h (in vivo; Muscle uptake) was 0.52 ± 0.27 %ID/g and the tissue uptake at 2 h (in vivo; Muscle uptake) was 0.72 ± 0.36 %ID/g. For the same compound, the tissue uptake at 0.5 h (in vivo; Small intestine uptake) was 0.57 ± 0.21 %ID/g, the tissue uptake at 2 h (in vivo; Small intestine uptake) was 0.5 ± 0.27 %ID/g and the tissue uptake at 0.5 h (in vivo; Spleen uptake) was 0.71 ± 0.2 %ID/g. The tissue uptake at 2 h (in vivo; Spleen uptake) was 0.45 ± 0.23 %ID/g, the tissue uptake at 0.5 h (in vivo; Stomach uptake) was 0.74 ± 0.27 %ID/g and the tissue uptake at 2 h (in vivo; Stomach uptake) was 1.63 ± 0.27 %ID/g. The tissue uptake at 0.5 h (in vivo; Tumor uptake) was 3 ± 0.63 %ID/g and the tissue uptake at 2 h (in vivo; Tumor uptake) was 9.53 ± 2.38 %ID/g.
